Results as given in patent publication US6258829A, “Cycloalka[b]pyridine-3-carbonylguanidine derivatives, process for producing the same, and drugs containing the same” (priority 1997, dated 2001).
Structures can show the parent of a compound that is named as a salt. Where two headings read alike, the source gives them in different places.

Experiments:
[1] = biological target: T1, Na^+ /H^+ exchange transport (rat platelets) (Rattus norvegicus, UniProt P26431); assay: Inhibition studies on Na^+ /H^+ exchange transport: swelling of rat platelets induced by sodium propionate; format: cell-based, rat (Wistar); conditions: rat platelet swelling, sodium propionate buffer pH 6.7, 20 seconds; 300 μM amiloride = 100% inhibition; read-out: IC5O value (inhibitory actions of test compounds on Na^+ /H^+ exchange transport)
T1 construct: the thus collected supernatant was used as platelet rich plasma; endogenous in cells; host or cells: platelets (platelet rich plasma) of Wistar rat
T1 sequence (P26431 whole entry): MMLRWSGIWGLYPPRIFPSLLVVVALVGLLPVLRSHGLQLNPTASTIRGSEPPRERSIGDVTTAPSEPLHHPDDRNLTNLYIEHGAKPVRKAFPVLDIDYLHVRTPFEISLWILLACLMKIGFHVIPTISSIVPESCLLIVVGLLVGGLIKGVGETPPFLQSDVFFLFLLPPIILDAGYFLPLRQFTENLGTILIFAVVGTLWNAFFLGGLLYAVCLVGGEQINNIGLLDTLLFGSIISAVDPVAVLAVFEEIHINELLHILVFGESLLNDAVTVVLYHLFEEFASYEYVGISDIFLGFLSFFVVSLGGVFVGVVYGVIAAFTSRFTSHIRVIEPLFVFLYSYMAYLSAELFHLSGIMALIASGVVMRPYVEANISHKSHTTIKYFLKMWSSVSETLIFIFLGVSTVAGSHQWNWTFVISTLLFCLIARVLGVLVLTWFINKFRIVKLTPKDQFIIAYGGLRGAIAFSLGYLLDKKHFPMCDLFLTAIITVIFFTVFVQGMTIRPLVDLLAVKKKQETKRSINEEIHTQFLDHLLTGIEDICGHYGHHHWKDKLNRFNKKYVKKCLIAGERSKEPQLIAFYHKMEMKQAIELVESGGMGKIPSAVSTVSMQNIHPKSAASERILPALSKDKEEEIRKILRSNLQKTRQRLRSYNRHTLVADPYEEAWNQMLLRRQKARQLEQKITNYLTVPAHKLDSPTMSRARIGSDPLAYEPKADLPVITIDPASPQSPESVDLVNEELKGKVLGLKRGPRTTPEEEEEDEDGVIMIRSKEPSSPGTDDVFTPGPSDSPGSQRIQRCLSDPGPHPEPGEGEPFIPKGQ
Procedure: The Na^+ /H^+ exchange transport inhibitory activity was measured in accordance with the method of Scholz et al. [Br. J. Pharmacol., 109, 562 (1993)], using the swelling of rat platelets induced by sodium propionate as an index.
Under ether anesthesia, blood sample (8 ml) was collected from the abdominal aorta of Wistar rat and mixed with 1 ml of acid citrate dextrose as an anticoagulant. The resulting mixture was immediately centrifuged at 90×g for 10 minutes, and the thus collected supernatant was used as platelet rich plasma. Next, the thus prepared platelet rich plasma (10×10^6 platelets/50 μl) was added to 250 μl of 140 mM sodium propionate buffer (pH 6.7, 1% dimethyl sulfoxide in final concentration) containing each test compound dissolved in dimethyl sulfoxide, and the decrease in absorbance caused by the swelling of platelets was periodically measured using Hema-Tracer (manufactured by Nk).
The decreased absorbance ratio 20 seconds after the addition of platelet rich plasma was measured as the Na^+ /H^+ exchange activity, and the inhibitory activity of each test compound was expressed as relative activity when the action of 300 μM amiloride was defined as 100% inhibition.
In this case, each test result was evaluated from 50% inhibition concentration (IC50 value) by using probit methods.

[2] = system: Na^+ /H^+ exchange transport; conditions: background statement, Circulation, 79, 1257 (1989); cited from earlier work
[3] = background statement; cited from earlier work
[4] = system: male SD rats; design: species or system rat (SD); conditions: rat, in vivo, iv, 10 mg/kg
[5] = system: male SD rats; design: species or system rat (SD); conditions: rat, in vivo, iv, 100 mg/kg

With Cc1nc2c(cc1C(=O)N=C(N)N)C(O)CCCC2 (stereo not drawn) [Compound D, 5-Hydroxy-2-methyl-6,7,8,9-tetrahydro-5H-cyclohepta[b]pyridine-3-carbonylguanidine] as the compound, how does the IC50 [1] read?
The IC50 was 0.1 to 0.99 µM.

With N=C(N)NC(=O)c1nc(Cl)c(N)nc1N [amiloride] as the compound, how does the “Na^+ /H^+ exchange transport inhibitory action” value [2] read?
The value was “has a Na^+ /H^+ exchange transport inhibitory action”.

And the accompanying actions [3]?
Its accompanying actions is “accompanies hypotensive action and salt excretion action”.

And the anti-arrhythmic action [3]?
The anti-arrhythmic action was “weak”.

For CCc1nc2c(cc1C(=O)N=C(N)N)CCCCC2 [Compound C, 2-Ethyl-6,7,8,9-tetrahydro-5H-cyclohepta[b]pyridine-3-carbonylguanidine], which IC50 [1] is on record?
Its IC50 is at most 0.099 µM.

With NC(N)=NC(=O)c1cc2c(nc1C(F)(F)F)CCCCC2 [Compound G, 2-Trifluoromethyl-6,7,8,9-tetrahydro-5H-cyclohepta[b]pyridine-3-carbonylguanidine] as the compound, how does the IC50 [1] read?
The IC50 was 0.1 to 0.99 µM.

For Cc1nc2c(cc1C(=O)N=C(N)N)CC(C)CC2 (stereo not drawn) [Compound B, 2,6-Dimethyl-5,6,7,8-tetrahydrocyclohexa[b]pyridine-3-carbonylguanidine], which IC50 [1] is on record?
Its IC50 is at most 0.099 µM.

With COC1CCCCc2cc(C(=O)N=C(N)N)c(C)nc21 (stereo not drawn) [Compound F, 9-Methoxy-2-methyl-6,7,8,9-tetrahydro-5H-cyclohepta[b]pyridine-3-carbonylguanidine] as the compound, how does the IC50 [1] read?
The IC50 was at most 0.099 µM.

Which results are given for Cc1nc2c(cc1C(=O)N=C(N)N)CCCC=C2 [maleic acid salt of the compound (K), 2-Methyl-6,7-dihydro-5H-cyclohepta[b]pyridine-3-carbonylguanidine maleate]?
death cases [4]: no death cases were found; toxic changes attributable to the compound (K) [4]: no toxic changes attributable to the compound (K) were observed; death cases [5]: no death cases were found; toxic changes attributable to the compound (K) [5]: no toxic changes attributable to the compound (K) were observed

For NC(N)=NC(=O)c1cc2c(nc1Cl)CCCCC2 [Compound H, 2-Chloro-6,7,8,9-tetrahydro-5H-cyclohepta[b]pyridine-3-carbonylguanidine], which IC50 [1] is on record?
The IC50 was at most 0.099 µM.

With NC(N)=NC(=O)c1cc2c(nc1-c1cccnc1)CCCCC2 [Compound J, 2-(3-Pyridyl)-6,7,8,9-tetrahydro-5H-cyclohepta[b]pyridine-3-carbonylguanidine] as the compound, how does the IC50 [1] read?
Its IC50 is at least 1 µM.

With Cc1nc2c(cc1C(=O)N=C(N)N)CCCC=C2 [Compound K, 2-Methyl-6,7-dihydro-5H-cyclohepta[b]pyridine-3-carbonylguanidine] as the compound, how does the IC50 [1] read?
Its IC50 is at most 0.099 µM.

Which IC50 [1] does the source give for COc1nc2c(cc1C(=O)N=C(N)N)CCCCC2 [Compound I, 2-Methoxy-6,7,8,9-tetrahydro-5H-cyclohepta[b]pyridine-3-carbonylguanidine] here?
Its IC50 is at least 1 µM.

Which IC50 [1] does the source give for Cc1nc2c(cc1C(=O)N=C(N)N)CCCCC2C (stereo not drawn) [Compound E, 2,9-Dimethyl-6,7,8,9-tetrahydro-5H-cyclohepta[b]pyridine-3-carbonylguanidine] here?
The IC50 was at most 0.099 µM.

With Cc1nc2c(cc1C(=O)N=C(N)N)CCCC2O (stereo not drawn) [Compound A, 8-Hydroxy-2-methyl-5,6,7,8-tetrahydrocyclohexa[b]pyridine-3-carbonylguanidine] as the compound, how does the IC50 [1] read?
The IC50 was 0.1 to 0.99 µM.
